Measured values as given in ChEMBL document CHEMBL1158406, “Design of novel quinazoline derivatives and related analogues as potent and selective ALK5 inhibitors” (Bioorg Med Chem Lett, 2009).
pIC50: −log10 of the molar value.

Experiments:
[1] = molecular target: T1, TGF-beta receptor type-1 (Homo sapiens, UniProt P36897); assay: Inhibition of human ALK5 kinase expressed in Sf9 cells
T1 sequence (P36897 whole entry): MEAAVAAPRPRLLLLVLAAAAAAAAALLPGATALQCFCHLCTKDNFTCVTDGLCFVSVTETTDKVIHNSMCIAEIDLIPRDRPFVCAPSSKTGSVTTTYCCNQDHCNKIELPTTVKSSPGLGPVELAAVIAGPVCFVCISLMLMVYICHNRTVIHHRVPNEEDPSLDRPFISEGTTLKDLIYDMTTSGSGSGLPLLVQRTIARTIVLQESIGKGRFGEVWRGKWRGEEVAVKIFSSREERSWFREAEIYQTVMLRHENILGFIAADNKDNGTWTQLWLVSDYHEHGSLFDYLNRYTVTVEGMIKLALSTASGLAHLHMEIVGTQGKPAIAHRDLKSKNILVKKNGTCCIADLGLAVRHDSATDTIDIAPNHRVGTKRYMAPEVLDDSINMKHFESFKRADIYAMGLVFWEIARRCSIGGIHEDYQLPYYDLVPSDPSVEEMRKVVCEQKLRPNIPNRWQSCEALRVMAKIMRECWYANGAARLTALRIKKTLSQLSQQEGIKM

[2] = molecular target: Mitogen-activated protein kinase 14 (Homo sapiens, UniProt Q16539); assay: Inhibition of GST-fused p38alpha
Mitogen-activated protein kinase 14, sequence (Q16539 whole entry, the tested form may be a part): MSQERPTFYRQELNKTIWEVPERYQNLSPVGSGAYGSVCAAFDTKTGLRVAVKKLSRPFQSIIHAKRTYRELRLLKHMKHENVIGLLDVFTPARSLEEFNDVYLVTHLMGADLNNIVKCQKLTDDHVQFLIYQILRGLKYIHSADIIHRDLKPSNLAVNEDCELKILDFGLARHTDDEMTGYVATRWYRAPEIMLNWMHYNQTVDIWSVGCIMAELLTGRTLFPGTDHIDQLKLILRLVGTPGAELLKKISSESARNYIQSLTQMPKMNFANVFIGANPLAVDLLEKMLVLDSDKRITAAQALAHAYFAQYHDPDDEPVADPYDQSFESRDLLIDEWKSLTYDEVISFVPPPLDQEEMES

[3] = molecular target: T1, TGF-beta receptor type-1; assay: Inhibition of TGF-beta-induced ALK5 in human HepG2 cells by luciferase assay; assay type: cell-based
[4] = system: Rattus norvegicus; assay: Inhibition of dimethylnitreosamine-induced collagen IA1 mRNA expression in rat liver at 10 mg/kg, po bid; assay type: functional
[5] = AUC in rat at 5 mg/kg, po; assay type: ADME, organism-based; set-up: dose 5 mg/kg, route oral; conditions: plasma
[6] = system: Rattus norvegicus; assay: Inhibition of dimethylnitreosamine-induced collagen IA1 mRNA expression in rat liver at 5 mg/kg, po bid; assay type: functional
[7] = Bioavailability in rat at 5 mg/kg, po; assay type: ADME, organism-based; conditions: in vivo

| SMILES | pIC50 [1] | pIC50 [2] | pIC50 [3] | inhibition in vivo at 10 mg/kg [4] | AUC [5] | inhibition in vivo at 5 mg/kg [6] | bioavailability [7] |
| --- | --- | --- | --- | --- | --- | --- | --- |
| Cc1cccc(-c2nc(Nc3ccc4[nH]ncc4c3)c3ccccc3n2)n1 | 7.60 | < 5.00 | 7.05 |  |  |  |  |
| Cc1cccc(-c2nc(Nc3ccncn3)c3ccccc3n2)n1 | 7.40 | < 5.00 | 7.22 |  |  |  |  |
| Cc1cccc(-c2nc(Nc3cccc(C(N)=O)c3)c3ccccc3n2)n1 | 6.58 | < 5.00 | 6.26 |  |  |  |  |
| Cc1cccc(-c2nc(Nc3ccncc3)c3sccc3n2)n1 | 7.66 |  | 7.22 |  |  |  |  |
| c1ccc(-c2nc(Nc3ccncc3)c3ccccc3n2)cc1 | 6.71 | 5.90 | 5.61 |  |  |  |  |
| Cc1cccc(-c2nc(Nc3ccc4ncsc4c3)c3ccccc3n2)n1 | 6.19 | < 5.00 | < 5.30 |  |  |  |  |
| Clc1cccc(-c2nc(Nc3ccncc3)c3ccccc3n2)c1 | 7.31 | < 4.82 | 5.79 |  |  |  |  |
| Cc1csc(-c2nc(Nc3ccncc3)c3ccccc3n2)n1 | 7.70 | < 4.82 | 6.47 |  |  |  |  |
| Cc1cccc(-c2nc(Nc3ccc4c(cnn4C)c3)c3ccccc3n2)n1 | 6.23 | < 5.00 | 6.10 |  |  |  |  |
| Cc1cccc(-c2nc(Nc3ccc4[nH]nnc4c3)c3ccccc3n2)n1 | 5.43 | < 5.00 | < 5.30 |  |  |  |  |
| Cc1cccc(-c2nc(Nc3ccncc3)c3ccccc3n2)n1 | 7.60 | 5.17 | 7.02 | 73% | 524 ng·h/mL | 66% | 40% |
| Cc1cccc(-c2nc(Nc3ccncc3)c3c(C)csc3n2)n1 | 7.80 |  | 6.50 |  |  |  |  |
| Cc1cc(Nc2nc(-c3cccc(C)n3)nc3ccccc23)ccn1 | 6.70 | < 5.00 | 5.99 |  |  |  |  |
| Cc1cccc(-c2nc(C)cc(Nc3ccncc3)n2)n1 | 7.03 |  | 6.13 |  |  |  |  |
